Here are results for five compounds from the NIST ThermoML archive (doi:10.1021/je050231r).

Molecules are shown by their SMILES. Numbers after ± are expanded uncertainties.

For this data set the following is noted: Liquid; for mass density: 293.2 K, 101.33 kPa.

Broadly, the mass density is mass per unit of volume. As usually defined, the vapor or sublimation pressure is the pressure of vapour in equilibrium with the condensed phase. As for `Fc1ccccc1` [fluorobenzene], the mass density is recorded as 1022.27 ± 0.27 kg/m3. The “vapor or sublimation pressure” value (358.4 K) came out at 101.94 ± 5.1 kPa.
Regarding `Brc1ccccc1` [bromobenzene], the mass density is on record as 1495.23 ± 1.2 kg/m3. The “vapor or sublimation pressure” value (429.4 K) turned out to be 101.76 ± 2.6 kPa.
`c1ccccc1` [benzene]: the mass density worked out at 876.53 ± 0.19 kg/m3. The “vapor or sublimation pressure” value (354.4 K) came to 101.77 ± 5.1 kPa.
Take `BrCCBr` [1,2-dibromoethane]: the mass density is recorded as 2179.24 ± 2.4 kg/m3. For the same compound, where the note is “404.6 K”, the “vapor or sublimation pressure” value was determined as 101.81 ± 0.62 kPa. Besides, the “vapor or sublimation pressure” value (405.4 K) was 102.09 ± 0.52 kPa. In addition, under “405.5 K”, the “vapor or sublimation pressure” value is 102.11 ± 0.52 kPa. Moreover, the “vapor or sublimation pressure” value (405.8 K) was 101.86 ± 0.98 kPa.
With `Cc1ccccc1` [toluene], the mass density was determined as 866.81 ± 0.28 kg/m3. Besides, the “vapor or sublimation pressure” value (384.9 K) turned out to be 102.09 ± 5.1 kPa.
